Results published in patent publication US20090133153A1, “Polypeptide participating in pyridoxine biosynthesis, polynucleotide encoding the polypetide and those uses” (Genomine, Inc, priority 2004, published 2009).

Assays:
[1] = tested on: T2 Arabidopsis thaliana transformant (anti-sense AtPDX4); test: Pyridoxine auxotrophy test: T2 seeds of anti-sense AtPDX4 transformant on MS medium with pyridoxine; assay type: in vivo; settings: 2.5 mg/L pyridoxine-HCl; for seeds germinated to grow: MS medium with 12 mg/L PPT
Method: Arabidopsis thaliana was cultivated in a soil-filled pot or cultivated in a petri dish by using MS medium (Murashige and Skoog salts, Sigma, U.S.A.) containing 2% sucrose (pH 5.7) and 0.8% agar. In this study, vitamin B6 group (including pyridoxine) was excluded from the vitamin mixture used in the MS medium. The culture pot was incubated at 22° C. in a growth chamber and controlled by 16/8 hours of light and dark cycle. Meanwhile, in order to investigate whether the plant transformant becomes pyridoxine auxotroph mutant or not after transformed with anti-sense construct against AtPDX4 gene, T2 seed of Arabidopsis thaliana transformant was collected from T1 transformant and cultivated to estimate the reaction by adding pyridoxine. Above all, MS medium containing 12 mg/L PPT (phosphinothricine, Duchefa, Netherlands) was prepared and T2 seeds were treated at a low temperature (4° C.) for 3 days. 120 of T2 seeds were cultivated respectively on 2 (total 4) petri dishes of MS media (30 seeds per petri dish) with or without 2.5 mg/L of pyridoxine-HCl (Sigma, USA), so as to select T2 Arabidopsis thaliana transformant.

[2] = tested on: T2 Arabidopsis thaliana transformant (anti-sense AtPDX4); test: Phenotype recovery of T2 anti-sense AtPDX4 transformant by vitamin B6's; assay type: in vivo; settings: 0.5 mg/L, 7 days
Method: Arabidopsis thaliana was cultivated in a soil-filled pot or cultivated in a petri dish by using MS medium (Murashige and Skoog salts, Sigma, U.S.A.) containing 2% sucrose (pH 5.7) and 0.8% agar. In this study, vitamin B6 group (including pyridoxine) was excluded from the vitamin mixture used in the MS medium. The culture pot was incubated at 22° C. in a growth chamber and controlled by 16/8 hours of light and dark cycle.
Above all, in order to select T2 Arabidopsis transformant, MS medium containing 12 mg/L PPT (phosphinothricine, Duchefa, Netherlands) was prepared and T2 seeds were treated at a low temperature (4° C.) for 3 days. 120 of T2 seeds were cultivated on petri dishes containing MS media with or without 0.5 mg/L of pyridoxine-HCl (Sigma, USA), pyridoxamine-2HCl (Sigma, USA), pyridoxal-HCl (Sigma, USA) or pyridoxal-5-phosphate (Sigma, USA).

Cc1ncc(CO)c(CO)c1O [pyridoxine, 2-methyl-3-hydroxy-4,5-di(hydroxymethyl)pyridine]
phenotype compared with wild type Arabidopsis thaliana ([1]; 7 days): not to change in the phenotype remarkably
phenotype compared with wild type Arabidopsis ([1]; 19 days): not to change in the phenotype such as growth retardation
seeds germinated to grow ([1]; 7 days): 22 seeds
seeds germinated to grow ([1]; 19 days): 24 seeds
phenotype of plant transformant [2]: not to change in the phenotype remarkably
seeds germinated to grow ([2]; MS medium with 12 mg/L PPT): 26 seeds
